A short description of series [1]: Microsomal stability assay, liver microsome half-life (monkey). The series is classed as in vitro ADME. The conditions noted are these: pH 7.4; monkey liver microsomes 0.5 mg/mL + NADPH, 1 μM compound, 37° C; read-out: Liver microsome + NADPH T½ (min) Monkey. The source says: (§1) Microsomal Stability Assay: Microsomal stability assay is a widely used in vitro model to characterize the metabolic conversion by phase I enzymes, such as cytochrome P450 (CYP) enzymes. Since metabolism is known to be highly variable in different species, microsomal stability assay is commonly run in multiple species. Metabolic stability of testing compound can be evaluated using human, rat, mouse, or other animal liver or intestine microsomes to predict intrinsic clearance.
(§2) The assay was carried out in 96-well microtiter plates at 37° C. Reaction mixtures (25 μL) contained a final concentration of 1 μM test compound, 0.5 mg/mL liver microsomes protein, and 1 mM NADPH and/or 1 mM UDPGA (with alamethicin) in 100 mM potassium phosphate, pH 7.4 buffer with 3 mM MgCl2. The incubation was done with N=1, but duplicate incubation at each time point can be prepared if necessary. At each of the time points (for example, 0, 15, 30, and 60 minutes), 150 μL of quench solution (100% acetonitrile with 0.1% formic acid) with internal standard was transferred to each well. Besides the zero minute controls, mixtures containing the same components except the NADPH can also be prepared as the negative control. Verapamil was included as a positive control to verify assay performance. Plates were sealed, vortexed, and centrifuged at 4° C. for 15 minutes at 4000 rpm. The supernatant is transferred to fresh plates for LC/MS/MS analysis.
(§3) Summarized conditions: [Compound]=1 μM, [LM]=0.5 mg/mL, [NADPH]=1 mM and/or [UDPGA]=1 mM, Buffer=100 mM Potassium Phosphate, pH 7.4 with 3 mM MgCl2, Time=0, 15, 30, and 60 min, and Temperature=37° C.
(§4) All samples were analyzed on LC/MS/MS using an AB Sciex API 4000 instrument, coupled to a Shimadzu LC-20AD LC Pump system. Analytical samples were separated using a Waters Atlantis T3 dC18 reverse phase HPLC column (20 mm×2.1 mm) at a flow rate of 0.5 mL/min. The mobile phase consisted of 0.1% formic acid in water (solvent A) and 0.1% formic acid in 100% acetonitrile (solvent B).
(§5) The extent of metabolism is calculated as the disappearance of the test compound, compared to the 0-min time incubation. Initial rates are calculated for the compound concentration and used to determine half-life (t1/2).
(In general: Liver microsomes are vesicles of endoplasmic reticulum, rich in cytochrome P450 enzymes.)

A short description of series [2]: Microsomal stability assay, liver microsome half-life (rat). It counts as in vitro ADME. The note with it: pH 7.4; rat liver microsomes 0.5 mg/mL + NADPH, 1 μM compound, 37° C; read-out: Liver microsome + NADPH T½ (min) Rat.
Source text: as §1, §2, §3, §4, §5

Series [3] is described as follows: Microsomal stability assay, liver microsome half-life (human). It counts as in vitro ADME. The note with it: pH 7.4; human liver microsomes 0.5 mg/mL + NADPH, 1 μM compound, 37° C; read-out: Liver microsome + NADPH T½ (min) Human.
Source text: as §1, §2, §3, §4, §5

A short description of series [4]: Microsomal stability assay, liver microsome half-life (mouse). It counts as in vitro ADME. The note with it: pH 7.4; mouse liver microsomes 0.5 mg/mL + NADPH, 1 μM compound, 37° C; read-out: Liver microsome + NADPH T½ (min) Mouse.
Source text: as §1, §2, §3, §4, §5

Series [5] has as its target T1, androgen receptor (AR) (Homo sapiens, UniProt P10275, T878A).
T1 construct: endogenous in cells; host or cells: LNCaP
T1 sequence (P10275 1-920 T878A): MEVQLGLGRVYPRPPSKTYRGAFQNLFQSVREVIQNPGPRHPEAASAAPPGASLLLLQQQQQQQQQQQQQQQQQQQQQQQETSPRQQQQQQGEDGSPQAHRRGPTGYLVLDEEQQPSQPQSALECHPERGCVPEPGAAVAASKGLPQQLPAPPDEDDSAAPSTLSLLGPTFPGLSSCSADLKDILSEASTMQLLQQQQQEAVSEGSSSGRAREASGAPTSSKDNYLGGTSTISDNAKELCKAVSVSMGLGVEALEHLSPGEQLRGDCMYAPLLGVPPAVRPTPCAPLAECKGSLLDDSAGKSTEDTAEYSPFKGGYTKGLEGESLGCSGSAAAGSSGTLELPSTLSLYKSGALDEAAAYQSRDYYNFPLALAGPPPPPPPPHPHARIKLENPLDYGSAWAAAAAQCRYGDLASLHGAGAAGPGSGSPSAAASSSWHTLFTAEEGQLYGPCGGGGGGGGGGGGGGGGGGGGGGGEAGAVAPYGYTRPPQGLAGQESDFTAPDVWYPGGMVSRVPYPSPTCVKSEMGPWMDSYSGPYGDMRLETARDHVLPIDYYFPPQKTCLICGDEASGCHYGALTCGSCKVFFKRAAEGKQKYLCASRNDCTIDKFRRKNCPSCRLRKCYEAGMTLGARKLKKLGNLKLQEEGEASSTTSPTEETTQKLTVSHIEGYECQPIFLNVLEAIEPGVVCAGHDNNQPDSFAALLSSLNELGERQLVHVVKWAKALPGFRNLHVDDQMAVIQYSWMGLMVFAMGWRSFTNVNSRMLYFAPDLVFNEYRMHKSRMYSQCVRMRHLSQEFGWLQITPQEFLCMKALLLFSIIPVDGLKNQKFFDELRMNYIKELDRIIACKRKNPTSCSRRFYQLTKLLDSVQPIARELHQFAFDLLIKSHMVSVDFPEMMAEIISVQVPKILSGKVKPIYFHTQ
In words: Androgen-induced PSA-luciferase assay, Luciferase Assay A (LNCaP transiently transfected with PSA (6.1 kb)-luciferase reporter). It counts as cell-based. The conditions noted are these: LNCaP cells, 1 h pretreatment, R1881 (1 nM) 24 h, read-out: PSA-Luc IC50 Range. The procedure, abridged: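 LNCaP cells transfected 24 h with PSA (6.1 kb)-luciferase reporter, pretreated 1 h with compound, then stimulated 24 h with R1881 (1 nM). Firefly luminescence in lysates normalized to protein content; IC50 from activity relative to R1881-induced vehicle control.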

A short description of series [6]: Microsomal stability assay, liver microsome half-life (dog). The series is classed as in vitro ADME. The note with it: pH 7.4; dog liver microsomes 0.5 mg/mL + NADPH, 1 μM compound, 37° C; read-out: Liver microsome + NADPH T½ (min) Dog.
Source text: as §1, §2, §3, §4, §5

Series [7] deals with T2, androgen receptor (AR) (Homo sapiens, UniProt P10275).
T2 sequence (P10275 1-920 T878A): T1 sequence (P10275 1-920 T878A)
In words: Androgen-induced PSA-luciferase assay, Luciferase Assay B (cells stably expressing ARR2PB or PSA-firefly luciferase reporter, 384-well). It counts as cell-based. The note with it: Luciferase Assay B (Compounds A186-A219 and A221-A245); stable luciferase reporter cells, 1 h pretreatment, R1881 24 h, serum-free; read-out: PSA-Luc IC50 Range. The procedure:
Luciferase Assay B: Cells stably expressing probasin promoter (ARR2PB) or human prostate-specific antigen (PSA)-firefly luciferase reporter were plated in poly-D-lysine-coated 384-well plates. 48 h after plating, cells were pretreated with vehicle or compounds for 1 h before adding R1881 under serum-free and phenol red-free conditions and then further incubated for 24 h. R1881 was added only for LNCaP cells. Firefly luciferase activities were determined by EnVision plate reader (Perkinemer) using the Steady-Glo Luciferase Reporter Assay System (Promega). Values were normalized to protein content. GraphPad Prism graphing software was used to calculate IC50 values. Luciferase Assay B was run for Compounds A186-A219 and A221-A245 in Table 2.
Statistical analyses were performed using GraphPad Prism (Version 6.01 for Windows; La Jolla, CA, USA). Comparisons between treatment and control groups were compared using Two-Way ANOVA with post-hoc Dunnett's and Tukey's tests. Differences were considered statistically significant at P values less than 0.05.
On the technique in general: In a reporter assay the amount or activity of a reporter protein is the signal.

Drawing on patent US20230373934A1, “ANDROGEN RECEPTOR MODULATORS AND METHODS FOR THEIR USE” (ESSA Pharma, Inc., priority 2022, published 2023), this text covers half-life and IC50 for twelve compounds.

Turning to `CS(=O)(=O)N[C@H]1C[C@H](n2cc(-c3ccc(N(CC(F)(F)F)c4cc(Cl)c(OCCCl)c(C#N)c4)cc3)cn2)C1` [Compound A84], the half-life at 1 μM is 100 min in series [1]; more than 120 min in series [2]; 101 min in series [3]; more than 120 min in series [4]; more than 120 min in series [6]. Moreover, the half-inhibitory concentration (IC50) (usually the point on the concentration scale where inhibition reaches its midpoint) at androgen receptor (AR) [5] lay within 500 to 2000 nM.
Regarding `CS(=O)(=O)NC1CN(c2cnc(-c3ccc(Oc4cc(Cl)c(OCCCl)c(C#N)c4)cc3)cn2)C1` [Compound A94], the half-life at 1 μM in series [1] was 117 min; in series [2], more than 120 min; in series [3] it was more than 120 min; in series [4] it was more than 120 min; in series [6], more than 120 min. Besides, the IC50 at androgen receptor (AR) [5] fell in the range of 500 to 2000 nM.
On to `CS(=O)(=O)Nc1cnc2cc(-c3ccc(Oc4cc(Cl)c(OC5CC5)c(C#N)c4)cc3)ccc2n1` [Compound A97, N-(6-(4-(3-chloro-5-cyano-4-cyclopropoxyphenoxy)phenyl)quinoxalin-2-yl) methanesulfonamide], for which the half-life at 1 μM in series [1], in series [2], in series [3], in series [4] and in series [6] was more than 120 min each time. On androgen receptor (AR) [5], the IC50 lay in the range of 500 to 2000 nM.
With `CS(=O)(=O)Nc1cnc2cc(-c3ccc(Oc4cc(Cl)c(OCC(F)(F)F)c(C#N)c4)cc3)ccc2n1` [Compound A98], the half-life at 1 μM in series [1], in series [2], in series [3], in series [4] and in series [6] was more than 120 min each time. Also, at androgen receptor (AR) [5], the IC50 was 500 to 2000 nM.
For `[2H]C([2H])([2H])N(c1ccc(-c2ccc3nc(NS(C)(=O)=O)cnc3c2)cc1)c1cc(Cl)c(OCCCl)c(C#N)c1` [Compound A145], the half-life at 1 μM in series [1], in series [2], in series [3], in series [4] and in series [6] was more than 120 min throughout. At androgen receptor (AR) [5], the IC50 fell in the range of 500 to 2000 nM.
As for `CS(=O)(=O)Nc1nc2ccc(-c3ccc(Oc4cc(Cl)c(OCCCl)c(C#N)c4)cc3)cc2cc1F` [Compound A157], the half-life at 1 μM in series [1], in series [2], in series [3], in series [4] and in series [6] was more than 120 min each time. Further, the IC50 on androgen receptor (AR) [5] lay within 500 to 2000 nM.
For the compound `COc1c(Cl)cc(N(c2ccc(-c3ccc4nc(NS(C)(=O)=O)cnc4c3)cc2)C2CC2)cc1C#N` [Compound A163], the half-life at 1 μM in series [1], in series [2], in series [3], in series [4] and in series [6] was more than 120 min each time. Further, on androgen receptor (AR) [5], the half-inhibitory concentration (IC50) was less than 500 nM.
`CN(c1ccc(-c2ccc3nc(NS(C)(=O)=O)cnc3c2)cc1)c1cc(Cl)c(OC2CC2)c(C#N)c1` [Compound A164, N-(6-(4-((3-chloro-5-cyano-4-cyclopropoxyphenyl)(methyl)amino)phenyl)quinoxalin-2-yl)methanesulfonamide]: the half-life at 1 μM in series [1], in series [2], in series [3], in series [4] and in series [6] was more than 120 min throughout. At androgen receptor (AR) [5], the IC50 is 500 to 2000 nM.
On to `CS(=O)(=O)Nc1cnc2cc(-c3ccc(N(c4cc(Cl)c(OC5CC5)c(C#N)c4)C4CC4)cc3)ccc2n1` [Compound A177], for which the half-life at 1 μM in series [1], in series [2], in series [3], in series [4] and in series [6] was more than 120 min each time. Moreover, on androgen receptor (AR) [5], the half-maximal inhibitory concentration (IC50) lay in the range of 500 to 2000 nM.
Turning to `CS(=O)(=O)Nc1cnc2cc(-c3ccc(N(CC(F)(F)F)c4cc(Cl)c(OC5CC5)c(C#N)c4)cc3)ccc2n1` [Compound A186, N-(6-(4-((3-chloro-5-cyano-4-cyclopropoxyphenyl) (2,2,2-trifluoroethyl)amino)phenyl)quinoxalin-2-yl)methanesulfonamide], the IC50 at androgen receptor (AR) [7] is less than 500 nM. In addition, the half-life at 1 μM in series [1], in series [2], in series [3], in series [4] and in series [6] was more than 120 min throughout.
For `[2H]C([2H])([2H])N(c1ccc(-c2ccc3nc(NS(C)(=O)=O)cnc3c2)cc1)c1cc(Cl)c(OC2CC2)c(C#N)c1` [Compound A187], the IC50 at androgen receptor (AR) [7] fell in the range of 500 to 2000 nM. For the same compound, the half-life at 1 μM in series [1], in series [2], in series [3], in series [4] and in series [6] was more than 120 min each time.
`CS(=O)(=O)Nc1cnc2cc(-c3ccc(Oc4cc(C#N)c(OC5CC5)c(C(F)(F)F)c4)cc3)ccc2n1` [Compound A190]: on androgen receptor (AR) [7], the IC50 fell in the range of 500 to 2000 nM. Further, the half-life at 1 μM in series [1], in series [2], in series [3], in series [4] and in series [6] was more than 120 min in each case.
